Source: US5219741A, “Method of making L-proline using an N-acyl-L-protine acylase” (priority 1990, dated 1993)
“Also recorded” adds a separate entry of the source. Where two headings read alike, the source gives them in different places.

Experiments:
N-acyl-L-proline acylase [1] = assay: Stereospecificity of hydrolysis of N-acetyl-D,L-proline; assay type: biochemical, Comamonas testosteroni DSM 5416
Procedure: The hydrolysis of N-acyl-L-proline, N-acetyl-D,L-proline and N-acetyl-D-proline was determined in the following reaction mixture:
The reaction mixture was incubated for two hours at 30° C. and the L-proline produced was determined by amino acid analysis as in Example 10.

[2] = test system: Comamonas testosteroni DSM 5416; assay: Growth of the strain in culture medium (OD600); assay type: cell-based
Procedure: Strains which appeared uniform according to the colony morphology and the microscopic image were then cultivated in 100 ml liquid medium (500 ml Erlenmeyer flask with top and 4 lateral baffles) at 30° C. on a rotary agitator machine at 200 rpms. The culture medium had the following composition: […]
(§1) The carbon source of the culture medium with a concentration of 4 g/l was varied and the influence on growth and acylase formation determined.
(§2) The concentration of N-acetyl-L-proline was varied in a range of 1 g/l-5 g/l in steps of 1 g/l in the culture medium as described in Example 1.
(§3) The concentration of (NH4)2 SO4 was varied in a range of 1 g/l-5 g/l in steps of 1 g/l in the culture medium as described in Example 1.
(§4) The concentration of yeast extract was varied in a range of 1 g/l-5 g/l in steps of 1 g/l in the culture medium as described in Example 1.
(§5) The N-acetyl-L-proline concentration was reduced to 0.2 to 1.0 g/l in the culture medium as described in Example 1 and 4 g/l Na acetate were additionally added.
(§6) The method described above under f) was followed. However, the inductor, N-acetyl-L-proline, was not added to the nutrient medium until the late exponential growth phase after an incubation time of 12 hours.
(§7) The method described above under f) was followed. In addition to N-acetyl-L-proline, various N-acetyl- and N-chloroacetyl amino acids were added to the nutrient medium in a concentration of 1 g/l.

N-acyl-L-proline acylase [3] = assay: Dependence of the acylase activity on the substrate concentration (KM); assay type: biochemical, Comamonas testosteroni DSM 5416; conditions: 30° C., 0.1M tris-HCl buffer, pH 7.0
Procedure: The reaction temperature was 30° C. and the incubation time 10 minutes. The N-acetyl-L-proline concentration of the reaction batch was varied in a range from 1 to 50 mM.

[4] = test system: N-acyl-L-proline acylase formation in Comamonas testosteroni DSM 5416; assay: Acylase formation: specific activity of N-acyl-L-proline acylase in crude extract; assay type: cell-based
Procedure: After 24 to 48 hours, the cell-containing nutrient medium was centrifuged (15 min., 4,500 g in a cooling centrifuge), the cells were washed twice with 0.9% (w/v) NaCl solution and resuspended in 10 ml 0.1M tris-HCl buffer, pH 7.0.
The microorganisms of this suspension were macerated by ultrasound treatment (Sonifier-Cell Disrupter B-30 of the firm Branson Sonic Power Co., Danbury, Conn., USA) (2 minutes pulsating, corresponding to 1 minute of pure ultrasonic radiation. The cell fragments and non-macerated cells were centrifuged in a cooled centrifuge 30 minutes at 40,000 g and 5° C. The clear supernatant (=crude extract) was used in an enzyme test.
The reaction was started by adding crude extract and the reaction batches customarily incubated for 10 minutes at 30° C. The incubation time and the amount of crude extract were selected so that the linearity range of the enzymatic reaction and of the subsequent proline detection were not exceeded.
The enzymatic reaction was interrupted by pipetting 50 μl of the enzyme sample into 1.25 ml 100% acetic acid. Subsequently, 0.45 ml 0.1M tris-HCl buffer pH 7.0 and 1.25 ml ninhydrin reagent (3 g ninhydrin dissolved by heating in a mixture of 60 ml 100% acetic acid and 40 ml 6M phosphoric acid) were added. The ninhydrin reagent was freshly prepared daily. The test tubes were loosely closed with screw-on caps, incubated 30 minutes at 100° C. and subsequently cooled down in an ice bath.
The L-proline, liberated by the enzymatic hydrolysis, forms a red dye with ninhydrin at 100° C. The absorption of the red dye was measured in a spectrophotometer at 480 nm relative to a control batch without crude extract (=substrate blank). The concentration of the L-proline produced was determined using a straight calibration line with L-proline in a range of 5 to 100 nmoles per 50 μl specimen. The enzyme activity was indicated in international units; thus, one unit (U) corresponded to an amount of 1 μmole L-proline produced per minute.
The protein determination was carried out with a protein-determination kit of the firm Pierce Chemical Co., Rockford, Ill., USA, according to Bradford, Anal. Biochem. 72, pp. 248-254 (1976).
as §1, §2, §3, §4, §5, §6, §7

N-acyl-L-proline acylase [5] = assay: Substrate specificity: hydrolysis of N-acyl amino acids and proline derivatives; assay type: biochemical, Comamonas testosteroni DSM 5416
Procedure: The activity of acylase was determined with various N-acetyl-L-amino acids and N-chloroacetyl-L-amino acids in a reaction batch with the following composition:
The reaction temperature was 30° C. and the incubation time 15 minutes to 24 hours. 0.2 ml samples of the reaction batch in each instance were mixed at different times with 0.2 ml 10% (w/v) trichloroacetic acid and the denatured protein centrifuged off for 10 minutes at 11,000 rpms in a table centrifuge. The supernatant was diluted with a 0.1M Na citrate buffer pH 2.2 with 25% (v/v) 2.2-thiodiethanol and 0.1% (v/v) phenol 1:5 and 1:50 respectively. The amino acids released were quantitatively detected by an amino-acid analyzer LC 5001 of the firm Biotronic, Maintal, Federal Republic of Germany. In Table 16, the substrates marked with * and the corresponding products were quantified by means of HPLC.
The activity of the acylase was determined with various proline derivatives as under a).

[6] = N-acetyl-L-proline 0.2 g/l + 4 g/l Na acetate, 34 hours
[7] = N-acetyl-L-proline 0.2 g/l added after 12 hours (late exponential growth phase), Na acetate medium, 24 hours further
[8] = N-acetyl-L-proline 0.4 g/l + 4 g/l Na acetate, 34 hours
[9] = N-acetyl-L-proline 0.4 g/l added after 12 hours (late exponential growth phase), Na acetate medium, 24 hours further
[10] = N-acetyl-L-proline 0.6 g/l + 4 g/l Na acetate, 34 hours
[11] = N-acetyl-L-proline 0.6 g/l added after 12 hours (late exponential growth phase), Na acetate medium, 24 hours further
[12] = N-acetyl-L-proline 0.8 g/l + 4 g/l Na acetate, 34 hours
[13] = N-acetyl-L-proline 0.8 g/l added after 12 hours (late exponential growth phase), Na acetate medium, 24 hours further
[14] = N-acetyl-L-proline 1.0 g/l + 4 g/l Na acetate, 34 hours
[15] = N-acetyl-L-proline 1.0 g/l added after 12 hours (late exponential growth phase), Na acetate medium, 24 hours further
[16] = N-acetyl-L-proline 1 g/l in culture medium, 24 hours
[17] = N-acetyl-L-proline 2 g/l in culture medium, 24 hours
[18] = N-acetyl-L-proline 3 g/l in culture medium, 24 hours
[19] = N-acetyl-L-proline 4 g/l in culture medium, 24 hours
[20] = N-acetyl-L-proline 5 g/l in culture medium, 24 hours
[21] = carbon source 4 g/l in culture medium
[22] = inductor 1 g/l + 4 g/l Na acetate, 24 hours

## CC(=O)N1CCC[C@H]1C(=O)O [N-acetyl-L-proline]
N-acyl-L-proline acylase [1]
  Stereospecific hydrolysis (in words): hydrolyzes
N-acyl-L-proline acylase [1]; substrate 10 mmol/l, two hours at 30° C., pH 7.0
  L-proline (mmol/l) produced: 10.25 mmol/L
[2]; [6]
  Growth (OD600): 2.27 OD600
[2]; [7]
  Growth (OD600): 2.22 OD600
[2]; [8]
  Growth (OD600): 2.90 OD600
[2]; [9]
  Growth (OD600): 2.28 OD600
[2]; [10]
  Growth (OD600): 2.75 OD600
[2]; [11]
  Growth (OD600): 2.76 OD600
[2]; [12]
  Growth (OD600): 3.04 OD600
[2]; [13]
  Growth (OD600): 2.95 OD600
[2]; [14]
  Growth (OD600): 3.12 OD600
[2]; [15]
  Growth (OD600): 2.88 OD600
[2]; [16]
  Growth (OD600): 1.95 OD600
[2]; [17]
  Growth (OD600): 3.16 OD600
[2]; [18]
  Growth (OD600): 4.32 OD600
[2]; [19]
  Growth (OD600): 5.42 OD600
[2]; [20]
  Growth (OD600): 5.68 OD600
[2]; [21]
  Growth (OD600): 6.0 OD600
[2]; [22]
  Growth (OD600): 3.46 OD600
N-acyl-L-proline acylase [3]
  Km: 5 mM
[4]
  Acylase formation / induction (in words): only formed; also recorded: induced acylase formation
  Optimum concentration in the culture medium for acylase formation: 4 g/L
[4]; [6]
  Spec. activity (U/mg): 0.53 U/mg
[4]; [7]
  Spec. activity (U/mg): 0.50 U/mg
[4]; [8]
  Spec. activity (U/mg): 0.79 U/mg
[4]; [9]
  Spec. activity (U/mg): 0.63 U/mg
[4]; [10]
  Spec. activity (U/mg): 1.41 U/mg
[4]; [11]
  Spec. activity (U/mg): 0.96 U/mg
[4]; [12]
  Spec. activity (U/mg): 1.70 U/mg
[4]; [13]
  Spec. activity (U/mg): 0.67 U/mg
[4]; [14]
  Spec. activity (U/mg): 1.55 U/mg
[4]; [15]
  Spec. activity (U/mg): 1.08 U/mg
[4]; [16]
  Spec. activity (U/mg): 1.33 U/mg
[4]; [17]
  Spec. activity (U/mg): 1.36 U/mg
[4]; [18]
  Spec. activity (U/mg): 1.77 U/mg
[4]; [19]
  Spec. activity (U/mg): 1.84 U/mg
[4]; [20]
  Spec. activity (U/mg): 0.94 U/mg
[4]; [21]
  Spec. activity (U/mg): 2.26 U/mg
[4]; [22]
  Spec. activity (U/mg): 1.34 U/mg
N-acyl-L-proline acylase [5]
  Hydrolysis by the acylase (in words): hydrolyzed especially well
N-acyl-L-proline acylase [5]; 20 mM substrate 1.0 ml in 2.0 ml batch, 30° C., pH 7.0, N-acetyl-L-proline = 100%, amino-acid analyzer
  Rel. activity (%): 100%
N-acyl-L-proline acylase [5]; listed as N-acetyl-L proline
  Hydrolysis by the acylase (in words): hydrolyzes
N-acyl-L-proline acylase [5]; proline derivatives, 30° C., pH 7.0, N-acetyl-L-proline = 100%
  Relative Activity (%): 100%
